From US9243247B2, “Composition for promoting apoptosis or inhibiting cell growth, comprising epstein-barr virus microrna” (Catholic University Industry Academic Cooperation Foundation, priority 2011, dated 2016)
Entries after “also recorded” stand apart in the source; their conditions may differ.

What was measured:
Assay type in all cases: cell-based
BIRC6 protein = BIRC6 protein level by Western blotting; settings: AGS; 48 hours after transfection; listed as miR-BART15-3p
Method: (§1) miR-BART15-3p was transfected to AGS by using lipofectamine-2000. Forty eight hours after the transfection, the cells were harvested and a QRT-PCR and a Western blotting were performed (FIGS. 12A and 12B). The BIRC6 mRNA level was not changed in the AGS to which miR-BART15-3p was transfected, while the protein level was decreased.
An miR-BART15-3p inhibitor was transfected to AGS-EBV by using lipofectamine-2000. Forty eight hours after the transfection, the cells were harvested and a QRT-PCR and a Western blotting were performed (FIGS. 12C and 12D). The BIRC6 mRNA level was not changed in the AGS-EBV to which an miR-BART15-3p inhibitor was transfected, while the protein level was increased.

3′UTR of TAX1BP1 = assay: Dual luciferase reporter assay (psiCHECK) in HEK293T, TAX1BP1 3'UTR; settings: psiCHECK with TAX1BP1 3′UTR, 48 hours after transfection
Source text: For an miRNA target test, to psiCHECK, which is a luciferase vector (FIG. 9) specially designed for an miRNA target test including a firefly gene and a renilla gene in the same vector, a 3′UTR of the five genes shown in Table 5, which might be targeted by miR-BART15-3p, was individually cloned to prepare a vector for a target test for each of the genes.
HEK293T was divided into a 96-well plate such that 5×10^3 cells were allocated to each well, and miR-BART15-3p and a vector for a target test were transfected by using lipofectamine2000. Forty eight hours after the transfection, a dual luciferase reporter assay (Virology. 412(2), 392-400 (2011)) was performed to normalize the results with reference to firefly luciferase and observe a variation of the renilla luciferase gene expression. […] The renilla value was not decreased by […] which was formed by mutating a seed part of miR-BART15-3p (FIG. 10).

AGS cell strain = assay: Cell growth test (CCK-8 assay) after transfection of BART miRNA mimics; settings: for Relative Cell Growth: relative to scrambled control (=1)
Summary of the method: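 EBV-negative AGS gastric cells in RPMI1640 with 10% FBS, seeded 1×10^3 cells/well and transfected with synthetic mature BART miRNA mimics (10 nM; dose series 1, 3, 10, 30 nM) via G-fectin. Growth read by CCK-8 after 72 h (or over time), 2 h at 37 °C, absorbance measured.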

TAX1BP1 mRNA = TAX1BP1 mRNA level by QRT-PCR; settings: AGS; after transfection; listed as miR-BART15-3p
Method: as §1
Different from BIRC6, the mRNA level of TAX1BP1 was decreased in the AGS to which miR-BART15-3p was transfected (FIG. 12E).

With “BART15-3p: EBV BART miRNA mimic, double stranded RNA; sense SEQ NO: 15, antisense SEQ NO: 16 (sense GUCAGUGGUUUUGUUUCCUUGA; antisense UCAAGGAAACAAAACCACUGAC; chemistry not given here)” the BIRC6 protein level (BIRC6 protein) was “decrease”, the “renilla value (renilla luciferase, normalized to firefly)” value (3′UTR of TAX1BP1) was “decrease” and the “cell growth lower than that of a scrambled control” value (AGS cell strain; 3 nM, 72 hours after transfection) was 50%. For the same substance, the cell growth (AGS cell strain; 10 nM, 72 hours after transfection) was “almost no cell growth”, the cell growth (AGS cell strain; 30 nM, 72 hours after transfection) was “almost no cell growth” and the “Relative Cell Growth” value (AGS cell strain; mimic 10 nM, 72 hours after transfection, n=9) was 0.5676. The “Relative Cell Growth” value (AGS cell strain; mimic 10 nM, 72 hours after transfection, n=9, listed as miR-BART15-3p) was “inhibited cell growth”, the “cell growth over time” value (AGS cell strain; mimic 10 nM, depending on treatment time, listed as miR-BART15-3p) was “greatly decreased cell growth; also recorded: inhibited cell growth almost entirely” and the “mRNA level of TAX1BP1” value (TAX1BP1 mRNA) was “decrease”.
